In patent publication US20090130165A1, “MIF Inhibitors” (Cortical Pty Ltd, priority 2005, published 2009):
Values after ≈ are worked out from the molar mass of the structure shown.

Legend:
[1] = tested on: LPS-induced IL-6 production in RAW264.7 mouse macrophage cell line; experiment: Inhibition of LPS-induced production of IL-6 in RAW264.7 macrophages; format: cell-based; conditions: 50 uM compound, 100 ng/ml LPS 4 hr, RAW264.7 cells, relative to LPS+DMSO control
Experimental: MIF is an important factor in the innate immune response to toxins such as the bacterial endotoxin lipopolysaccharide (LPS). […] A compound with the ability to inhibit the biological activity of MIF would therefore inhibit the activation of cytokine production by macrophages in response to LPS. The RAW264.7 mouse macrophage cell line was propagated in DMEM/10% foetal calf serum (FCS) at 37° C. in 5% CO2. 24 hr prior to assay cells were seeded in 96-well tissue culture plates. Cells were allowed to adhere for 4 hr prior to transfer to DMEM/0.5% FCS for 18 hr. Cells were then treated with 50 uM compound in DMSO for 30 min prior to stimulation for 4 hr with 100 ng/ml LPS. Cell culture supernatants were then collected from each well and assayed for IL-6 levels by ELISA (R&D Systems) according to the manufacturer's instructions.

[2] = Lower limits of aqueous solubility by nephelometry; format: physicochemical; conditions: phosphate-buffered saline with 0.005% (v/v) P20 and 5% DMSO, aqueous with cosolvent or surfactant or cyclodextrin, kinetic from dmso stock, 0.005% (v/v) P20, 5% DMSO, read-out: Solubility Lower Limit Range
Experimental: Lower limits of aqueous compound solubility were determined in a nepholometer in phosphate-buffered saline containing 0.005% (v/v) P20 and a final concentration of 5% DMSO. Briefly, compounds were initially dissolved in DMSO as a 10 mM stock solution and diluted to 1 mM and 0.5 mM working solutions with neat DMSO. The compounds were then titrated in DMSO and a constant volume of DMSO stock added to filtered PBS/P20 solution so that the final DMSO concentration was 5%. The solubility was then determined in clear, flat-bottom 96-well plates using the nephelometer and reported as the concentration range at which the compound begins to precipitate from solution.

[3] = biological target: T1, Recombinant human MIF protein (Homo sapiens, UniProt P14174); experiment: Inhibition of MIF tautisomerase activity (L-dopachrome); format: biochemical; conditions: mean±standard deviation of 2-4 experiments; for inhibition at 50 µM: 50 uM compound; for inhibition at 100 µM: 100 uM compound
T1 sequence (P14174 2-115 limits assumed): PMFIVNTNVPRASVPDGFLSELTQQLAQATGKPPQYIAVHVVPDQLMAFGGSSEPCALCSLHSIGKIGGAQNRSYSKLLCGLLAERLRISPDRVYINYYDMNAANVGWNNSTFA
Experimental: MIF protein has the ability in vitro to catalyze the tautisomerization of dopachrome^(15).
Recombinant human MIF protein was pre-incubated with compounds as indicated prior to the addition of L-dopachrome substrate. Tautomerase activity was determined by measurement of die decrease in absorbance at 475 nm after 2 min. […]

Row | SMILES | inhibition at 50 µM [1] | solubility [2] | melting point | inhibition at 50 µM [3] | inhibition at 100 µM [3]
1 | CCCCSCC(=O)c1ccc2c(c1)CC(=O)N2 [Compound 21, 5-((Butylthio)acetyl)-1,3-dihydro-2H-indol-2-one] | 41 ± 54% | – | – | – | –
2 | O=C(O)CSCC(=O)c1ccc2[nH]c(=O)[nH]c2c1 [Compound 6, ((2-oxo-2-(2-oxo-2,3-dihydro-1H-benzimidazol-5-yl)ethyl)thio)acetic acid] | – | 67 to 250 µg/mL (≈ 252 to 939 µM) | 230 °C (dec.) | – | –
3 | CCCCSCC(=O)c1cc2sc(=O)[nH]c2cc1Cl [Compound 29, 6-((butylthio)acetyl)-5-chloro-1,3-benzothiazol-2(3H)-one] | – | – | 102.5 to 115 °C | 24 ± 1% | 42 ± 9%
4 | O=C1Cc2cc(C(=O)CSCCCCCCO)c(Cl)cc2N1 [Compound 11, 6-chloro-5-(((6-hydroxyhexyl)thio)acetyl)-1,3-dihydro-2H-indol-2-one] | 48 ± 24% | – | – | – | –
5 | O=C(CSCCCCCCO)c1ccc2[nH]c(=O)[nH]c2c1 [Compound 10, 5-(((6-hydroxyhexyl)thio)acetyl)-1,3-dihydro-2H-benzimidazol-2-one] | 25% | – | 180 to 181 °C | – | –
6 | COC(=O)CCSCC(=O)c1ccc2c(c1)CC(=O)N2 [Compound 1, methyl 3-((2-oxo-2-(2-oxo-2,3-dihydro-1H-indol-5-yl)ethyl)thio)propanoate] | 13 ± 23% | 18 to 63 µg/mL (≈ 61.4 to 215 µM) | 106 to 108 °C | – | –
7 | CCCCSCC(=O)c1cc2c(cc1Cl)n(C)c(=O)n2C [Compound 27, 5-((butylthio)acetyl)-6-chloro-1,3-dimethyl-1,3-dihydro-2H-benzimidazol-2-one] | – | – | – | 28 ± 17% | 44 ± 12%
8 | O=C(CSCCO)c1ccc2[nH]c(=O)[nH]c2c1 [Compound 7, 5-(((2-hydroxyethyl)thio)acetyl)-1,3-dihydro-2H-benzimidazol-2-one] | – | – | 320 °C (dec.) | – | –
9 | O=C(O)CSCC(=O)c1ccc2[nH]c(=O)oc2c1 [Compound 17, ((2-Oxo-2-(2-oxo-2,3-dihydro-1,3-benzoxazol-6-yl)ethyl)thio)acetic acid] | 8 ± 90% | – | – | – | –
10 | CCCCSCC(=O)c1cc2c(cc1Cl)NC(=O)C2 [Compound 20, 5-((Butylthio)acetyl)-6-chloro-1,3-dihydro-2H-indol-2-one] | 59 ± 11% | – | – | – | –
11 | CCCCSCC(=O)c1ccc2[nH]c(=O)oc2c1 [Compound 16, 6-((Butylthio)acetyl)-1,3-benzoxazol-2(3H)-one] | 12 ± 63% | – | – | – | –
12 | CCCCSCC(=O)c1ccc2[nH]c(=O)[nH]c2c1 [Compound 22, 5-((butylthio)acetyl)-1,3-dihydro-2H-benzimidazol-2-one] | – | – | 211 to 213 °C | 4 ± 6% | 4 ± 7%
13 | O=C(O)CCSCC(=O)c1ccc2[nH]c(=O)sc2c1 [Compound 18, 3-((2-Oxo-2-(2-oxo-23-dihydro-1,3-benzothiazol-6-yl)ethyl)thio)propanoic acid] | 49 ± 34% | – | – | – | –
14 | CC(=O)OCCCCCCSCC(=O)c1ccc2c(c1)CC(=O)N2 [Compound 8, 6-((2-oxo-2-(2-oxo-2,3-dihydro-1H-indol-5-yl)ethyl)thio)hexyl acetate] | 42 ± 11% | – | 86 to 87 °C | – | –
15 | O=C(O)CCSCC(=O)c1cc2[nH]c(=O)[nH]c2cc1Cl [Compound 26, 3-((2-(6-chloro-2-oxo-2,3-dihydro-1H-benzimidazol-5-yl)-2-oxoethyl)thio)propanoic acid] | – | – | – | 2 ± 3% | 4 ± 6%
16 | Cn1c(=O)sc2cc(C(=O)CSCCC(=O)O)c(Cl)cc21 [Compound 32, 3-((2-(5-chloro-3-methyl-2-oxo-2,3-dihydro-1,3-benzothiazol-6-yl)-2-oxoethyl)thio)propanoic acid] | – | – | 120 to 121 °C | 4 ± 1% | 11 ± 4%
17 | O=C1Cc2cc(C(=O)CSCCCCCCO)ccc2N1 [Compound 9, 5-(((6-hydroxyhexyl)thio)acetyl)-1,3-dihydro-2H-indol-2-one] | – | – | 105 to 108 °C | – | –
18 | CCCCSCC(=O)c1ccc2c(c1)n(C)c(=O)n2C [Compound 24, 5-((butylthio)acetyl)-1,3-dimethyl-1,3-dihydro-2H-benzimidazol-2-one] | – | – | 80 to 81 °C | 15 ± 6% | 34 ± 12%
19 | Cn1c(=O)n(C)c2cc(C(=O)CSCCC(=O)O)c(Cl)cc21 [Compound 28, 3-((2-(6-chloro-1,3-dimethyl-2-oxo-2,3-dihydro-1H-benzimidazol-5-yl)-2-oxoethyl)thio)propanoic acid] | – | – | 148 to 150 °C | 12 ± 6% | 27 ± 6%
20 | CCCCSCC(=O)c1cc2[nH]c(=O)[nH]c2cc1Cl [Compound 25, 5-((butylthio)acetyl)-6-chloro-1,3-dihydro-2H-benzimidazol-2-one] | – | – | 199 to 201 °C | 4 ± 3% | 12 ± 4%
21 | COC(=O)CSCC(=O)c1ccc2[nH]c(=O)[nH]c2c1 [Compound 5, methyl ((2-oxo-2-(2-oxo-2,3-dihydro-1H-benzimidazol-5-yl)ethyl)thio)acetate] | – | – | 177 to 178.5 °C | – | –
22 | O=C(O)CCSCC(=O)c1ccc2[nH]c(=O)oc2c1 [Compound 14, 3-((2-Oxo-2-(2-oxo-2,3-dihydro-1,3-benzoxazol-6-yl)ethyl)thio)propanoic acid] | – | > 140 µg/mL | – | – | –
23 | O=C(O)CCSCC(=O)c1cc2sc(=O)[nH]c2cc1Cl [Compound 30, 3-((2-(5-chloro-2-oxo-2,3-dihydro-1,3-benzothiazol-6-yl)-2-oxoethyl)thio)propanoic acid] | – | – | 195 to 197 °C | 12 ± 11% | 27 ± 16%
24 | CCCCSCC(=O)c1cc2sc(=O)n(C)c2cc1Cl [Compound 31, 6-((butylthio)acetyl)-5-chloro-3-methyl-1,3-benzothiazol-2(3H)-one] | – | – | – | 2 ± 3% | 8 ± 8%
25 | Cn1c(=O)n(C)c2cc(C(=O)CSCCC(=O)O)ccc21 [Compound 23, 3-((2-(1,3-dimethyl-2-oxo-2,3-dihydro-1H-benzimidazol-5-yl)-2-oxoethyl)thio) propanoic acid] | – | – | 174 to 176 °C | 0% | 3 ± 2%
26 | COC(=O)CCSCC(=O)c1cc2c(cc1Cl)NC(=O)C2 [Compound 12, methyl 3-((2-(6-chloro-2-oxo-2,3-dihydro-1H-indol-5-yl)-2-oxoethyl)thio)propanoate] | 60% | – | 75 to 77 °C | – | –
